Assays:
[1] = biological target: T1, mutant Q49 androgen receptor (Homo sapiens, UniProt P10275, INS80QQQQQQQQQQQQQQQQQQQQQQQQQQ); assay: Mutant androgen receptor inclusions in COS-1 cells transfected with GFPARQ49 (fluorescence microscopy); type: cell-based; settings: COS-1 cells transfected with GFPARQ49, JC9 5 micromolar
T1 construct: GFP; expressed in transfected cells; host or cells: COS-1 (monkey kidney)
Method: Monkey kidney COS-1 cells were plated at a density of 3×10^4 cells per 0.5-milliliter volume onto alcohol-cleaned and sterilized cover slips placed in 35-millimeter suspension culture dishes containing Dulbecco's modified Eagle's (DME) medium containing 10% FBS. The cells were transfected with plasmids containing either the Q19 (plasmid GFPARQ19) or Q49 (plasmid GFPARQ49) mutant androgen receptor and green fluorescent protein (GFP) as a reporter. For each coverslip, 12.3 microliters SuperFect was added to 3.075 micrograms plasmid in 102.5 microliters DME medium (to give a 1:4 ratio of DNA to SuperFect reagent); the mixture was vortexed briefly, and the complex allowed to form over 15 minutes. Each mixture then received 897 microliters CD/DME and was mixed gently. The resulting 1-milliliter volumes were added to the dishes containing the coverslips (final plasmid concentration was 3.02 micrograms per dish). Cells were allowed to incubate with the transfection solution for 5 hours, then the medium was changed to fresh 1.5 milliliters CD/DME medium with either vehicle (DMSO) only added or JC9 (final concentration 5 micromolar). […] The coverslips were air-dried, mounted on slides with a glycerol-based mounting agent, and stored at 4 degrees Celsius if necessary prior to observation with fluorescence microscopy. […]

glucocorticoid receptor = biological target: T2, glucocorticoid receptor (Homo sapiens, UniProt P04150); assay: Western blot of LNCaP cell lysates, GR; type: cell-based; settings: 1 or 2 micromolar, 24 hours, presence or absence of DHT
T2 construct: endogenous in cells; host or cells: LNCaP
T2 sequence (P04150 1-777): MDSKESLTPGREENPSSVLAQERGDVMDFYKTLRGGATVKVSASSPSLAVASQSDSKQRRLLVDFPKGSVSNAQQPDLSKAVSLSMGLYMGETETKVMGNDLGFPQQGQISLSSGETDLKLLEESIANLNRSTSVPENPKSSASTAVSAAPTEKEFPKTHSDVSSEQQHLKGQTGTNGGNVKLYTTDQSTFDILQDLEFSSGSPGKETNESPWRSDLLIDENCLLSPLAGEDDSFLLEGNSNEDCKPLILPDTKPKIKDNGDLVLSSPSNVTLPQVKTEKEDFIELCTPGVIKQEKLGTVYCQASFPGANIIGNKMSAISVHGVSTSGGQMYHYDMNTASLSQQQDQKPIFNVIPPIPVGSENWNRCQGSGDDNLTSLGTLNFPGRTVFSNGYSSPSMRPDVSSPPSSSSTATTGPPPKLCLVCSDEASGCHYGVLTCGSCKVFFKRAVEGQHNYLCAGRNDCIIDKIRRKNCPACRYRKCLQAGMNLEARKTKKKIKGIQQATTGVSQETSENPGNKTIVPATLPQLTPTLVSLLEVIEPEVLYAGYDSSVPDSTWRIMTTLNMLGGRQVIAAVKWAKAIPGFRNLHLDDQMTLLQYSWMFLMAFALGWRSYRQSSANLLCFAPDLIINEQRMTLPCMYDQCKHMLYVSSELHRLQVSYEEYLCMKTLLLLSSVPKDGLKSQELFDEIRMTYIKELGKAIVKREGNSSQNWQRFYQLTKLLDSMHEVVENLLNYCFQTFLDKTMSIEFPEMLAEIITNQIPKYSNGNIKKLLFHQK
Method: Human prostate cancer LNCaP cells and T47D cells were plated at a density of 7×10^5 cells per 60 millimeter tissue culture dish in […] (RPMI) medium containing 10% FBS. The medium was changed to RPMI or DME medium containing 10% charcoal-stripped serum 24 hours later to deplete cellular androgens or estrogens. After another 24 hours, treatment with the test compounds began. The test dose of JC15 was 1 or 2 micromolar and the test does of JC9 was 1, 5 and 10 micromolar. LNCap cells also received dihydrotestosterone (DHT) (3 nanomolar). Control cells received a corresponding amount of the vehicle, dimethylsulfoxide (DMSO) (<0.04%) for an equivalent exposure time. Cells were incubated with JC15 for 24 or 48 hours, and were lysed in 250 microliters of 1×SDS/PAGE loading buffer. Approximately 40 micrograms of total cellular protein was loaded in each lane of a pre-cast gel (NuPAGE, Invitrogen). Protein separation and transfer were performed following the manufacturer's instructions.
For the prostate cell lysates, androgen receptor (AR) protein was visualized by incubating the resultant membranes with an anti-AR antibody (BD-PharMingen), followed by chemiluminescence detection (ECL Plus, Amersham). […] The resultant protein signals were quantified using densitometry and NIH ImageJ software.

T1 sequence (P10275 with tags, fused parts or gaps with the stated changes): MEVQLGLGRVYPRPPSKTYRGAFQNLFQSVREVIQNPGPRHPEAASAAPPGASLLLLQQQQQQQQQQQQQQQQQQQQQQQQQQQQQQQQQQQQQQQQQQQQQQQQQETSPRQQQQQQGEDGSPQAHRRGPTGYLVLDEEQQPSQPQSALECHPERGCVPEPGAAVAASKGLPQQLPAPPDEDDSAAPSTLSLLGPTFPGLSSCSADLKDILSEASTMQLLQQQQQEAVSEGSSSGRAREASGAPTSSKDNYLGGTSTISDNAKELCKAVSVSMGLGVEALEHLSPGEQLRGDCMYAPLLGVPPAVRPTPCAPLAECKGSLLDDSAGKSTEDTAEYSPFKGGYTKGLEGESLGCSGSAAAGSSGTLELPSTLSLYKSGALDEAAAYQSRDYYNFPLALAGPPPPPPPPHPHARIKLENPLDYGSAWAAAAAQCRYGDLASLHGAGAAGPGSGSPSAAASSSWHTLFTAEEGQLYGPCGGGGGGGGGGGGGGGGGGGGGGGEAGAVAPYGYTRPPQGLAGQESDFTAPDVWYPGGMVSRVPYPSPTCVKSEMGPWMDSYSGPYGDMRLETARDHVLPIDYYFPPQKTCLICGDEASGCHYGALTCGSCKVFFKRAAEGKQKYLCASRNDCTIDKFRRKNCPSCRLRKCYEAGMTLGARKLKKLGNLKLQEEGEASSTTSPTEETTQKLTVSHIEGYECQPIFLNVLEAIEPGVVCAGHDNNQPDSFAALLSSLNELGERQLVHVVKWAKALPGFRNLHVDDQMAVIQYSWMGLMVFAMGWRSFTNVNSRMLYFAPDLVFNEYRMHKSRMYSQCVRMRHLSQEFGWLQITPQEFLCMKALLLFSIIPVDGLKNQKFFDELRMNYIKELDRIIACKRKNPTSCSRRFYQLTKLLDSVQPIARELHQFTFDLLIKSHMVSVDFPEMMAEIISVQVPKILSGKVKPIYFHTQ

COc1ccc(C=CC(=O)C=C(O)C=Cc2ccc(OC)c(OC)c2)cc1OC [JC9, 5-hydroxy-1,7-bis(3,4-dimethoxyphenyl)-1,4,6-heptatrien-3-one]
fluorescent inclusions or aggregates of mutant Q49 androgen receptor [1]: substantially smaller amounts of fluorescent inclusions

CCOC(=O)CCC(C(=O)C=Cc1ccc(O)c(OC)c1)C(=O)C=Cc1ccc(O)c(OC)c1 (centres unmarked) [JC15, 7-(4-hydroxy-3-methoxyphenyl)-4-[3-(4-hydroxy-3-methoxyphenyl)acryloyl]-5-oxo-hept-6-enoic acid ethyl ester]
cellular concentration of glucocorticoid receptor (glucocorticoid receptor): did not substantially affect

— patent publication US20060084704A1, “Methods and compositions for enhancing degradation of nuclear receptor transcription factors and uses thereof” (priority 2004, published 2006)
